{"source": "the supplement of paper PMC10307832", "assay_in_all_cases": "relative viability (nuclei count vs DMSO), 5 days (fraction); higher = more cells survive", "key": {"NCI-H23": {"system": "NCI-H23", "procedure,_shortened": "(§1)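 For relative viability, nuclei counts in treated wells were divided by those in vehicle wells. Lung cancer cell lines had been pin-tool dosed in 1536-well plates the day after seeding and cultured for 5 days, then fixed and stained in one step (final 0.05% Triton X-100, 1% formaldehyde, 1 ug/ml Hoechst) and imaged at 4×. Doses were one drug alone or a fixed anchor-drug dose plus five library-drug doses (not always all listed) in √10 steps, and values are duplicate-plate medians.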"}, "NCI-H2347": {"system": "NCI-H2347", "procedure,_shortened": "as §1"}, "NCI-H1395": {"system": "NCI-H1395", "procedure,_shortened": "as §1"}, "NCI-H2023": {"system": "NCI-H2023", "procedure,_shortened": "as §1"}, "NCI-H650": {"system": "NCI-H650", "procedure,_shortened": "as §1"}, "NCI-H441": {"system": "NCI-H441", "procedure,_shortened": "as §1"}, "NCI-H2126": {"system": "NCI-H2126", "procedure,_shortened": "as §1"}, "LCLC-103H": {"system": "LCLC-103H", "procedure,_shortened": "as §1"}, "NCI-H3122": {"system": "NCI-H3122", "procedure,_shortened": "as §1"}, "NCI-H838": {"system": "NCI-H838", "procedure,_shortened": "as §1"}, "NCI-H1993": {"system": "NCI-H1993", "procedure,_shortened": "as §1"}}}
{"smiles": "CC1(C)CCC(c2ccc(Cl)cc2)=C(CN2CCN(c3ccc(C(=O)NS(=O)(=O)c4ccc(N[C@H](CCN5CCOCC5)CSc5ccccc5)c(S(=O)(=O)C(F)(F)F)c4)cc3)CC2)C1", "note": "[Navitoclax] + Nc1nc2[nH]cc(CCc3ccc(C(=O)N[C@@H](CCC(=O)O)C(=O)O)cc3)c2c(=O)[nH]1 [Pemetrexed] (partner 0.2 µM)", "values": [{"measurement": "relative viability", "setting": "NCI-H23; first compound 0.005 µM", "value": 0.594}, {"measurement": "relative viability", "setting": "NCI-H23; first compound 0.01581 µM", "value": 0.665}, {"measurement": "relative viability", "setting": "NCI-H23; first compound 0.05 µM", "value": 0.707}, {"measurement": "relative viability", "setting": "NCI-H23; first compound 0.1581 µM", "value": 0.603}, {"measurement": "relative viability", "setting": "NCI-H23; first compound 0.5 µM", "value": 0.645}, {"measurement": "relative viability", "setting": "NCI-H2347; first compound 0.005 µM", "value": 0.443}, {"measurement": "relative viability", "setting": "NCI-H2347; first compound 0.01581 µM", "value": 0.439}, {"measurement": "relative viability", "setting": "NCI-H2347; first compound 0.05 µM", "value": 0.411}, {"measurement": "relative viability", "setting": "NCI-H2347; first compound 0.1581 µM", "value": 0.427}, {"measurement": "relative viability", "setting": "NCI-H2347; first compound 0.5 µM", "value": 0.437}, {"measurement": "relative viability", "setting": "NCI-H1395; first compound 0.005 µM", "value": 0.763}, {"measurement": "relative viability", "setting": "NCI-H1395; first compound 0.01581 µM", "value": 0.853}, {"measurement": "relative viability", "setting": "NCI-H1395; first compound 0.05 µM", "value": 0.94}, {"measurement": "relative viability", "setting": "NCI-H1395; first compound 0.1581 µM", "value": 0.86}, {"measurement": "relative viability", "setting": "NCI-H1395; first compound 0.5 µM", "value": 0.913}, {"measurement": "relative viability", "setting": "NCI-H2023; first compound 0.005 µM", "value": 0.229}, {"measurement": "relative viability", "setting": "NCI-H2023; first compound 0.01581 µM", "value": 0.236}, {"measurement": "relative viability", "setting": "NCI-H2023; first compound 0.05 µM", "value": 0.258}, {"measurement": "relative viability", "setting": "NCI-H2023; first compound 0.1581 µM", "value": 0.214}, {"measurement": "relative viability", "setting": "NCI-H2023; first compound 0.5 µM", "value": 0.201}, {"measurement": "relative viability", "setting": "NCI-H650; first compound 0.005 µM", "value": 0.9}, {"measurement": "relative viability", "setting": "NCI-H650; first compound 0.01581 µM", "value": 1.05}, {"measurement": "relative viability", "setting": "NCI-H650; first compound 0.05 µM", "value": 0.908}, {"measurement": "relative viability", "setting": "NCI-H650; first compound 0.1581 µM", "value": 0.95}, {"measurement": "relative viability", "setting": "NCI-H650; first compound 0.5 µM", "value": 0.999}, {"measurement": "relative viability", "setting": "NCI-H441; first compound 0.005 µM", "value": 0.238}, {"measurement": "relative viability", "setting": "NCI-H441; first compound 0.01581 µM", "value": 0.24}, {"measurement": "relative viability", "setting": "NCI-H441; first compound 0.05 µM", "value": 0.258}, {"measurement": "relative viability", "setting": "NCI-H441; first compound 0.1581 µM", "value": 0.232}, {"measurement": "relative viability", "setting": "NCI-H441; first compound 0.5 µM", "value": 0.296}, {"measurement": "relative viability", "setting": "NCI-H2126; first compound 0.005 µM", "value": 0.667}, {"measurement": "relative viability", "setting": "NCI-H2126; first compound 0.01581 µM", "value": 0.696}, {"measurement": "relative viability", "setting": "NCI-H2126; first compound 0.05 µM", "value": 0.671}, {"measurement": "relative viability", "setting": "NCI-H2126; first compound 0.1581 µM", "value": 0.602}, {"measurement": "relative viability", "setting": "NCI-H2126; first compound 0.5 µM", "value": 0.624}, {"measurement": "relative viability", "setting": "LCLC-103H; first compound 0.005 µM", "value": 0.473}, {"measurement": "relative viability", "setting": "LCLC-103H; first compound 0.01581 µM", "value": 0.425}, {"measurement": "relative viability", "setting": "LCLC-103H; first compound 0.05 µM", "value": 0.401}, {"measurement": "relative viability", "setting": "LCLC-103H; first compound 0.1581 µM", "value": 0.442}, {"measurement": "relative viability", "setting": "LCLC-103H; first compound 0.5 µM", "value": 0.368}, {"measurement": "relative viability", "setting": "NCI-H3122; first compound 0.005 µM", "value": 0.207}, {"measurement": "relative viability", "setting": "NCI-H3122; first compound 0.01581 µM", "value": 0.176}, {"measurement": "relative viability", "setting": "NCI-H3122; first compound 0.05 µM", "value": 0.211}, {"measurement": "relative viability", "setting": "NCI-H3122; first compound 0.1581 µM", "value": 0.183}, {"measurement": "relative viability", "setting": "NCI-H3122; first compound 0.5 µM", "value": 0.209}, {"measurement": "relative viability", "setting": "NCI-H838; first compound 0.005 µM", "value": 0.242}, {"measurement": "relative viability", "setting": "NCI-H838; first compound 0.01581 µM", "value": 0.254}, {"measurement": "relative viability", "setting": "NCI-H838; first compound 0.05 µM", "value": 0.28}, {"measurement": "relative viability", "setting": "NCI-H838; first compound 0.1581 µM", "value": 0.266}, {"measurement": "relative viability", "setting": "NCI-H838; first compound 0.5 µM", "value": 0.244}, {"measurement": "relative viability", "setting": "NCI-H1993; first compound 0.005 µM", "value": 0.616}, {"measurement": "relative viability", "setting": "NCI-H1993; first compound 0.01581 µM", "value": 0.701}, {"measurement": "relative viability", "setting": "NCI-H1993; first compound 0.05 µM", "value": 0.474}, {"measurement": "relative viability", "setting": "NCI-H1993; first compound 0.1581 µM", "value": 0.653}]}
